Counter-ions that a name gives are not always drawn.
Tested on: Aβ1-42 production
Assay: Cellular assay for inhibition of Aβ1-42 production (H4 APP751 SWE clone 8.20)
Type: cell-based
Conditions: 19 h, H4 APP751 SWE clone 8.20 cells, 19 h incubation; class symbols; read-out: Activity Rating (Aβ42 cellular IC50)
Protocol: Cellular Assays for Inhibition of Aβ1-40 and Aβ1-42 Production
H4 cells stably transfected with APP751 containing the Swedish mutation (H4 APP751 SWE clone 8.20, developed at BMS) were maintained in log phase through twice weekly passage at a 1:20 split. […] Following incubation for 19 h in 5% CO2 at 37° C., plates were briefly centrifuged (1000 rpm, 5 min). A 10 μl aliquot from each well was transferred to a second assay plate (Costar 3709) for Aβ40 measurements. Antibody cocktails were freshly prepared by dilution into 40 mM Tris-HCl (pH 7.4) with 0.2% BSA and added to assay plates. For Aβ42 measurements, antibodies specific for the Aβ42 neoepitope (565, developed at BMS; conjugated to the Wallac reagent (Perkin Elmer)) and the N-terminal sequence of Aβ peptide (26D6, developed at SIBIA; conjugated to APC (Perkin Elmer)) were mixed and 20 μl of the mixture was added to each well of the incubated cell plate yielding a final concentration of 0.8 ng/well 565 and 75 ng/well 26D6. For the Aβ40 measurements, antibodies specific for the Aβ40 neoepitope (TSD, developed at BMS; conjugated to the Wallac reagent (Perkin Elmer)) and 26D6 as described above were mixed and 20 μl of the mixture was added to the 10 μl aliquots which had been removed previously from the cell plate yielding a final concentration of 1.6 ng/well TSD and 17.5 ng/well 26D6. Assay plates containing antibodies were sealed with aluminum foil and incubated overnight at 4° C. Signal was determined using a Viewlux counter (Perkin Elmer) and IC50 values determined using curve fitting in CurveMaster (Excel Fit based).

IC50 | SMILES
10 to 100 nM | Cc1ncnn1-c1ccc(Nc2nc3c(c(N4CC(F)(F)C4)n2)CCC3c2ccc(F)cc2)cc1F (racemic) [Example 16, 4-(3,3-difluoroazetidin-1-yl)-N-(3-fluoro-4-(5-methyl-1H-1,2,4-triazol-1-yl)phenyl)-7-(4-fluorophenyl)-6,7-dihydro-5H-cyclopenta[d]pyrimidin-2-amine]
10 to 100 nM | COc1cc(Nc2nc3c(c(N4CC(F)(F)C4)n2)CCC3c2ccc(F)cc2)ccc1-n1cnc(Cl)n1 (racemic) [Example 17, N-(4-(3-chloro-1H-1,2,4-triazol-1-yl)-3-methoxyphenyl)-4-(3,3-difluoroazetidin-1-yl)-7-(4-fluorophenyl)-6,7-dihydro-5H-cyclopenta[d]pyrimidin-2-amine]
10 to 100 nM | COc1cc(Nc2nc3c(c(N4CCC(F)(F)CC4)n2)CCC3c2ccc(F)cc2)ccc1-n1cnc(Cl)c1 (racemic) [Example 39, N-(4-(4-chloro-1H-imidazol-1-yl)-3-methoxyphenyl)-4-(4,4-difluoropiperidin-1-yl)-7-(4-fluorophenyl)-6,7-dihydro-5H-cyclopenta[d]pyrimidin-2-amine]
10 to 100 nM | COc1cc(Nc2nc3c(c(N4CCC(C(F)(F)F)C4)n2)CCC3c2ccc(F)cc2)ccc1-n1cnc(Cl)c1 (racemic) [Example 41, N-(4-(4-chloro-1H-imidazol-1-yl)-3-methoxyphenyl)-7-(4-fluorophenyl)-4-(3-(trifluoromethyl)pyrrolidin-1-yl)-6,7-dihydro-5H-cyclopenta[d]pyrimidin-2-amine]
1.5 to 9.9 nM | COc1cc(Nc2nc(NCCCO)c3c(n2)C(c2ccc(F)cc2)CC3)ccc1-n1cnc(Cl)c1 (racemic) [Example 43, 3-(2-(4-(4-chloro-1H-imidazol-1-yl)-3-methoxyphenylamino)-7-(4-fluorophenyl)-6,7-dihydro-5H-cyclopenta[d]pyrimidin-4-ylamino)propan-1-ol]
1.5 to 9.9 nM | COc1cc(Nc2nc3c(c(N(C)C)n2)CCC3c2ccc(F)cc2)ccc1-n1cnc(Cl)c1 (racemic) [Example 46, N^2-(4-(4-Chloro-1H-imidazol-1-yl)-3-methoxyphenyl)-7-(4-fluorophenyl)-N^4,N^4-dimethyl-6,7-dihydro-5H-cyclopenta[d]pyrimidine-2,4-diamine]
10 to 100 nM | CCN(C)c1nc(Nc2ccc(-n3cnc(Cl)c3)c(OC)c2)nc2c1COCC2c1ccccc1 (racemic) [Example 52, N^2-(4-(4-Chloro-1H-imidazol-1-yl)-3-methoxyphenyl)-N^4-ethyl-N^4-methyl-8-phenyl-7,8-dihydro-5H-pyrano[4,3-d]pyrimidine-2,4-diamine]
10 to 100 nM | COc1cc(Nc2nc3c(c(N(C)C)n2)COCC3c2ccccc2)ccc1-n1cnc(Cl)c1 (racemic) [Example 53, N^2-(4-(4-Chloro-1H-imidazol-1-yl)-3-methoxyphenyl)-N^4,N^4-dimethyl-8-phenyl-7,8-dihydro-5H-pyrano[4,3-d]pyrimidine-2,4-diamine]
10 to 100 nM | CNc1nc(Nc2ccc(-n3cnc(C)n3)c(OC)c2)nc2c1COCC2c1ccc(F)cc1 (racemic) [Example 54, 8-(4-fluorophenyl)-N2-(3-methoxy-4-(3-methyl-1H-1,2,4-triazol-1-yl)phenyl)-N4-methyl-7,8-dihydro-5H-pyrano[4,3-d]pyrimidine-2,4-diamine]
10 to 100 nM | CCNc1nc(Nc2ccc(-n3cnc(C)n3)c(OC)c2)nc2c1COCC2c1ccc(F)cc1 (racemic) [Example 55, N4-ethyl-8-(4-fluorophenyl)-N2-(3-methoxy-4-(3-methyl-1H-1,2,4-triazol-1-yl)phenyl)-7,8-dihydro-5H-pyrano[4,3-d]pyrimidine-2,4-diamine]
10 to 100 nM | CCNc1nc(Nc2ccc(-n3cnc(Cl)c3)c(OC)c2)nc2c1COCC2c1ccc(F)cc1 (racemic) [Example 56, N2-(4-(4-chloro-1H-imidazol-1-yl)-3-methoxyphenyl)-N4-ethyl-8-(4-fluorophenyl)-7,8-dihydro-5H-pyrano[4,3-d]pyrimidine-2,4-diamine]
10 to 100 nM | CCNc1nc(Nc2ccc(-n3ncnc3C)c(F)c2)nc2c1COCC2c1ccc(F)cc1 (racemic) [Example 59, N4-ethyl-N2-(3-fluoro-4-(5-methyl-1H-1,2,4-triazol-1-yl)phenyl)-8-(4-fluorophenyl)-7,8-dihydro-5H-pyrano[4,3-d]pyrimidine-2,4-diamine]
1.5 to 9.9 nM | CNc1nc(Nc2ccc(-n3cnc(Cl)c3)c(OC)c2)nc2c1COCC2c1ccc(F)cc1 (racemic) [Example 60, N2-(4-(4-chloro-1H-imidazol-1-yl)-3-methoxyphenyl)-8-(4-fluorophenyl)-N4-methyl-7,8-dihydro-5H-pyrano[4,3-d]pyrimidine-2,4-diamine]
10 to 100 nM | COc1cc(Nc2nc3c(c(N(C)C)n2)COCC3c2ccc(F)cc2)ccc1-n1cnc(Cl)c1 (racemic) [Example 61, N2-(4-(4-chloro-1H-imidazol-1-yl)-3-methoxyphenyl)-8-(4-fluorophenyl)-N4,N4-dimethyl-7,8-dihydro-5H-pyrano[4,3-d]pyrimidine-2,4-diamine]
10 to 100 nM | CCN(C)c1nc(Nc2ccc(-n3cnc(Cl)c3)c(OC)c2)nc2c1COCC2c1ccc(F)cc1 (racemic) [Example 62, N2-(4-(4-chloro-1H-imidazol-1-yl)-3-methoxyphenyl)-N4-ethyl-8-(4-fluorophenyl)-N4-methyl-7,8-dihydro-5H-pyrano[4,3-d]pyrimidine-2,4-diamine]
10 to 100 nM | COc1cc(Nc2nc3c(c(N4CC(F)(F)C4)n2)COCC3c2ccc(F)cc2)ccc1-n1cnc(Cl)c1 (racemic) [Example 63, N-(4-(4-chloro-1H-imidazol-1-yl)-3-methoxyphenyl)-4-(3,3-difluoroazetidin-1-yl)-8-(4-fluorophenyl)-7,8-dihydro-5H-pyrano[4,3-d]pyrimidin-2-amine]
10 to 100 nM | COc1cc(Nc2nc3c(c(N4CC(F)(F)C4)n2)COC3c2ccc(F)cc2)ccc1-n1cnc(Cl)c1 (racemic) [Example 80, N-(4-(4-chloro-1H-imidazol-1-yl)-3-methoxyphenyl)-4-(3,3-difluoroazetidin-1-yl)-7-(4-fluorophenyl)-5,7-dihydrofuro[3,4-d]pyrimidin-2-amine]
10 to 100 nM | CNc1nc(Nc2ccc(-n3ncnc3C)c(F)c2)nc2c1COC2c1ccc(F)cc1 (racemic) [Example 82, N2-(3-fluoro-4-(5-methyl-1H-1,2,4-triazol-1-yl)phenyl)-7-(4-fluorophenyl)-N4-methyl-5,7-dihydrofuro[3,4-d]pyrimidine-2,4-diamine, TFA]
10 to 100 nM | COc1cc(Nc2nc3c(c(N4C[C@@H](C)O[C@@H](C)C4)n2)COC3c2ccc(F)cc2)ccc1-n1cnc(Cl)c1 (mixture of isomers) [Example 84, N-(4-(4-chloro-1H-imidazol-1-yl)-3-methoxyphenyl)-4-((2S,6R)-2,6-dimethylmorpholino)-7-(4-fluorophenyl)-5,7-dihydrofuro[3,4-d]pyrimidin-2-amine, 2 TFA]
10 to 100 nM | CCNc1nc(Nc2ccc(-n3cnc(Cl)c3)c(OC)c2)nc2c1CCOC2c1ccc(F)cc1 (racemic) [Example 88, N2-(4-(4-chloro-1H-imidazol-1-yl)-3-methoxyphenyl)-N4-ethyl-8-(4-fluorophenyl)-6,8-dihydro-5H-pyrano[3,4-d]pyrimidine-2,4-diamine]

Same assay, conditions: 19 h, H4 APP751 SWE clone 8.20 cells, 19 h incubation; read-out: Activity Rating (Aβ42 cellular IC50), numeric value

IC50 | SMILES
13 nM | CNc1nc(Nc2ccc(-n3cnc(C)n3)c(OC)c2)nc2c1CCC2c1ccc(F)cc1 (racemic) [Example 44, 7-(4-fluorophenyl)-N2-(3-methoxy-4-(3-methyl-1H-1,2,4-triazol-1-yl)phenyl)-N4-methyl-6,7-dihydro-5H-cyclopenta[d]pyrimidine-2,4-diamine]

Same assay, conditions: H4 APP751 SWE clone 8.20 cells, 19 h incubation; class symbols; TFA; read-out: Activity Rating (Aβ42 cellular IC50)

IC50 | SMILES
1.5 to 9.9 nM | COc1cc(Nc2nc(N[C@H](C)C3CC3)c3c(n2)C(c2ccc(F)cc2)CC3)ccc1-n1cnc(Cl)c1 (mixture of isomers) [Example 49, N2-(4-(4-chloro-1H-imidazol-1-yl)-3-methoxyphenyl)-N4-((R)-1-cyclopropylethyl)-7-(4-fluorophenyl)-6,7-dihydro-5H-cyclopenta[d]pyrimidine-2,4-diamine, 2 TFA]
1.5 to 9.9 nM | COc1cc(Nc2nc(N[C@@H](C)C3CC3)c3c(n2)C(c2ccc(F)cc2)CC3)ccc1-n1cnc(Cl)c1 (mixture of isomers) [Example 50, N2-(4-(4-chloro-1H-imidazol-1-yl)-3-methoxyphenyl)-N4-((S)-1-cyclopropylethyl)-7-(4-fluorophenyl)-6,7-dihydro-5H-cyclopenta[d]pyrimidine-2,4-diamine, TFA]
10 to 100 nM | COc1cc(Nc2nc3c(c(N4CC[C@@H](F)C4)n2)COC3c2ccc(F)cc2)ccc1-n1cnc(Cl)c1 (mixture of isomers) [Example 83, N-(4-(4-chloro-1H-imidazol-1-yl)-3-methoxyphenyl)-7-(4-fluorophenyl)-4-((R)-3-fluoropyrrolidin-1-yl)-5,7-dihydrofuro[3,4-d]pyrimidin-2-amine, 2 TFA]

— US8637525B2, “Compounds for the reduction of beta-amyloid production” (Bristol-Myers Squibb Company, priority 2009, dated 2014)
